The results in this text go back to patent EP2072621A1, “Solvent tolerant microorganisms” (DSM IP Assets B.V., priority 2007, dated 2009).

Read-outs that look alike come from different tables or passages of the source.

For one assay, the system named is L. casei ADRIA 85 L121. The conditions noted are these: 30 degrees C; for Relative growth rate: reference at 0 g/L = 1.00. The method, then:
(§1) MRS medium oxoid (CM0359, Merck KgaA, Germany) was prepared according to manufacturer's instructions and filled out in 50 ml Schott flasks and sterilized at 121 degrees C during 15 minutes. 1 vial of thawed frozen culture was inoculated to 50 ml of this medium and the cultures were subsequently incubated overnight at 30 degrees C standing still or during 2 nights if no clear growth (whitening) had occurred yet. 20 microliter of this culture was inoculated to 180 microliter of microtiter plate (MTP) medium. The pH of this medium was approximately 6.0.
(§2) After inoculation, every 20 minutes the optical density at 620 nm was measured in the wells of the microtiter plate using a Multiscan Ascent photometer (Thermo Fisher Scientific, Inc.), while the temperature was controlled at 30 degrees C. Total time of measurement was maximally 24 hours. Before measurements were taken, the microtiter plates were shaken for 30 seconds to homogenize any settled biomass.
(§3) The growth rate was calculated using the exponential phase of the growth curve, based on the optical density measurement. The relative growth rate was calculated using the reference at 0 g/L as 1.00. […] Table 3 Relative growth rate
(§4) IC50(%) values were determined for the Lactobacilli at 30 degrees C by using a polynomial second order fit through the relative growth rate data and are presented in Table 4. […]

In assay [1] the test system is L. casei from commercial rennet. To be noted: 30 degrees C; for Relative growth rate: reference at 0 g/L = 1.00. The method, then:
as §1, §2, §3, §4

The subject of assay [2] is L. fructivorans ATCC 8288. The conditions noted are these: 30 degrees C; for Relative growth rate: reference at 0 g/L = 1.00. The method, then: as §1, §2, §3, §4
The test system of another assay is L. plantarum ATCC 8014. The conditions noted are these: 30 degrees C; for Relative growth rate: reference at 0 g/L = 1.00. The method, then:
as §1, §2, §3, §4

The test system of a further assay is Lactobacilli. The conditions noted are these: butanol concentration of 2.5 w/v%. The method, then: as §1, §2, §3, §4
Where [3] appears, read: polynomial second order fit through the relative growth rate data.

As for butanol, the IC50% in the assay with L. casei ADRIA 85 L121 (setting [3]) is given as 2.0 w/v %; in assay [1] (setting [3]), 1.9 w/v %; in assay [2] (setting [3]), 2.1 w/v %; in the assay on L. plantarum ATCC 8014 (setting [3]) it was 2.2 w/v %. In addition, the Relative growth rate was found to be 0.96 in the assay with L. casei ADRIA 85 L121 (Butanol concentration 0.5 w/v%); 0.89 in the assay with L. casei ADRIA 85 L121 (Butanol concentration 1 w/v%); 0.73 with L. casei ADRIA 85 L121 (Butanol concentration 1.5 w/v%); 0.21 in the assay with L. casei ADRIA 85 L121 (Butanol concentration 2.5 w/v%); 0.88 in assay [1] (Butanol concentration 0.5 w/v%); 0.79 in assay [1] (Butanol concentration 1 w/v%). Further, the Relative growth rate in assay [1] (Butanol concentration 1.5 w/v%) was found to be 0.68; in assay [1] (Butanol concentration 2.5 w/v%) it was 0.24; in assay [2] (Butanol concentration 0.5 w/v%), 0.94; in assay [2] (Butanol concentration 1 w/v%), 0.89; in assay [2] (Butanol concentration 1.5 w/v%), 0.78; in assay [2] (Butanol concentration 2.5 w/v%), 0.28. Moreover, the Relative growth rate is listed as 0.97 in the assay on L. plantarum ATCC 8014 (Butanol concentration 0.5 w/v%), 0.90 in the assay with L. plantarum ATCC 8014 (Butanol concentration 1 w/v%), 0.77 in the assay on L. plantarum ATCC 8014 (Butanol concentration 1.5 w/v%) and 0.37 in the assay on L. plantarum ATCC 8014 (Butanol concentration 2.5 w/v%). Also, the “growth in presence of butanol” value in the assay on Lactobacilli is recorded as “can still grow”.
